According to patent publication US20190274952A1, “TOPICAL USE OF AN ANTIMICROBIAL FORMULATION” (priority 2013, published 2019):
Read-outs that look alike come from different tables or passages of the source.

Legend:
[1] = cited from earlier work
[2] = test system: Staphylococcus aureus (ATCC 6538); test: Minimal concentration for total antimicrobial activity, AOAC method 955.15 (Phenol Coefficient Method); format: cell-based; conditions: agent incorporated into formulation F, contact time 10 minutes
Protocol: The minimum concentration at which a total antimicrobial activity could be observed is determined for selected phenolic compounds of natural origin and selected essential oils using the AOAC method 955.15 (“Phenol Coefficient Method”) with minor modifications. Different concentrations of essential oils and phenolic compounds of natural origin are incorporated into formulation F (see table hereinbelow) and inoculated with a 0.05% bacterial suspension of Staphylococcus aureus (ATCC 6538; concentration of about 8 logs). After a contact time of 10 minutes, 0.1 ml of the inoculated solution is transferred to a broth culture with neutralizing (Difco 268110) and incubated over a period of 72 hours at 37° C. The presence of turbidity in the broth culture is indicative of the survival of the microorganism

| Compound | LD50 Oral-rat ([1]; ingredients of Formulation 1) | Minimal Concentration [2] | also measured |
| --- | --- | --- | --- |
| OCCCO [1,3-Propanediol] | >15 000 mg/kg |  |  |
| Cc1ccc(C(C)C)cc1O [Carvacrol] |  | 0.07 v/v % |  |
| CCCCCCCCCCCCCCCC[N+](C)(C)CC(=O)[O-] [Cetyl Betaine] | 1620 mg/kg |  |  |
| CC(C)=CCCC(C)=CC=O [Citral] |  | >1% v/v % |  |
| C=CCc1ccc(O)c(OC)c1 [Eugenol] |  | 0.4 v/v % |  |
| C=O [Formaldehyde] |  |  | LD50 ([1]; rat, in vivo, po): of 100 mg/Kg; LD50 Oral-rat ([1]; rat, in vivo, po): 100 mg/kg; Toxicity ([1]; rat, in vivo): Toxic |
| COCC(C)O (centres unmarked) [Glycol Ether PM] | 5 210 mg/kg |  |  |
| Cc1ccc(C(C)C)c(O)c1 [Thymol] |  | 0.07 v/v % |  |
| Sodium Laureth Sulfate | >5000 mg/kg |  |  |
